Data from article PMC9460261, “Need for a Standardized Translational Drug Development Platform: Lessons Learned from the Repurposing of Drugs for COVID-19” (Microorganisms, 2022).
Structures can show the parent of a compound that is named as a salt. Where two headings read alike, the source gives them in different places.

What was measured:
[1] = tested on: SARS-CoV-2; type: in vivo, Syrian hamster; conditions: for Activity in SARS-CoV-2 Hamster Model: doses, frequency, duration as in Table 1
[2] = tested on: SARS-CoV-2; conditions: read-out: SARS-CoV-2 EC50, cited from earlier work
[3] = tested on: SARS-CoV-2 in Calu-3 cells; test: microbe, parasite or virus in culture
[4] = Binding to antiviral assay medium by Rapid Equilibrium Dialysis; conditions: bovine, antiviral assay medium (DMEM with 2% v/v FCS)
[5] = Plasma protein binding, human; conditions: human, plasma
[6] = tested on: SARS-CoV-2 in Calu-3 cells
[7] = Population PK model from satellite PK studies in hamster; conditions: for CL/F, elimination clearance, population estimate (%RSE) / KA, absorption rate constant, population estimate (%RSE) / Q/F (Q1/F), inter-compartment clearance, population estimate (%RSE) / VC/F, central volume of distribution, population estimate (%RSE) / VP/F, peripheral volume of distribution, population estimate (%RSE): hamster of the study's median weight (80-131 g)
[8] = Plasma protein binding, hamster; conditions: hamster, plasma
[9] = tested on: SARS-CoV-2 in Vero cells
[10] = tested on: SARS-CoV-2 in Vero cells; test: microbe, parasite or virus in culture; conditions: Severe acute respiratory syndrome coronavirus 2, Vero
[11] = Population PK model in human (digitized literature data); conditions: modelled from digitized data
[12] = in vitro; conditions: hamster, plasma
[13] = in vitro; conditions: human, plasma
[14] = in vitro; conditions: African green monkey, Selectivity Index (Vero cells)
[15] = female, LGV Golden Syrian, hamster, in vivo
[16] = in vitro; conditions: bovine
[17] = cited from earlier work
[18] = Severe acute respiratory syndrome coronavirus 2, Calu-3, read-out: Calu-3 cells Average IC50
[19] = read-out: VERO cells Average IC50, With Pgp pump inhibitor, 2 μM CP-100356, * one replicate only
[20] = read-out: VERO cells Average IC50, Without Pgp pump inhibitor, * one replicate only
[21] = human, ref 68 (ambroxol), 71-73 (cepharanthine), 78 (fluvoxamine), 80 (molnupiravir)
[22] = human, ref 68 (ambroxol), 71-73 (cepharanthine)

Row | SMILES | Activity in SARS-CoV-2 Hamster Model [1] | IC50 [3, 18] [µM] | fraction unbound [4] | fraction unbound [5] | Activity In Vitro; Potency EC50 or IC50 < 10 µM; Calu-3 Cells [6] | Dose effect on F (power) ([7]; covariate, hamster model) | CL/F, elimination clearance, population estimate (%RSE) [7] | KA, absorption rate constant, population estimate (%RSE) [7] | Q/F (Q1/F), inter-compartment clearance, population estimate (%RSE) [7] | VC/F, central volume of distribution, population estimate (%RSE) [7] | VP/F, peripheral volume of distribution, population estimate (%RSE) [7] | fraction unbound [8] | Activity In Vitro; Potency EC50 or IC50 < 10 µM; Vero Cells [9] | IC50 [10, 19] [µM] | IC50 [10, 20] [µM] | CL/F, population estimate (%RSE) [11, 21] | fraction unbound [12] | selectivity ratio ([14]; With Pgp pump inhibitor) | selectivity ratio ([14]; Without Pgp pump inhibitor) | Toxicity observed (^T), Vero Cells [9] | other results
1 | Nc1c(Br)cc(Br)cc1CN[C@H]1CC[C@H](O)CC1 [Ambroxol, ambroxol] | No | > 50 | 0.954 | 0.238 | No (Potency EC50 or IC50 < 10 µM) | 0.689 (11.1%) | 4860 (11.3%) mL/h | 4.76 (15.1%) h-1 | 1180 (22.5%) mL/h | 12000 (10.9%) mL | 16100 (31.6%) mL | 0.125 | No (Potency EC50 or IC50 < 10 µM) | > 50 | > 50 | 41.4 (3.0%) L/h | – | – | – | – | EC50 ([2]; host cell Vero E6, ref 47): > 30 µM
2 | COc1ccc2cc1Oc1ccc(cc1)C[C@H]1c3c(cc4c(c3Oc3cc5c(cc3OC)CCN(C)[C@@H]5C2)OCO4)CCN1C [Cepharanthine, cepharanthine] | No | > 50 | – | – | No (Potency EC50 or IC50 < 10 µM) | – | – | – | – | – | – | – | Yes (Potency EC50 or IC50 < 10 µM) | 1.9 | 4.5 | 74.4 (5.5%) L/h | 0.018 | 17.2 | 9.7 | Yes ^T | EC50 ([2]; host cell VeroE6/TMPRSS2): 0.35 µM; fraction unbound [13]: 0.02; CL/F, elimination clearance, population estimate (%RSE) [15]: 804 (25.0) mL/h; KA, absorption rate constant, population estimate (%RSE) [15]: 1.52 (27.0) h-1; VC/F, central volume of distribution, population estimate (%RSE) [15]: 66400 (12.5) mL; fraction unbound [16]: 0.643; F, population estimate (%RSE) ([11]; adult 70 kg): 0.116 (7.3%); KA, population estimate (%RSE) ([11]; adult 70 kg): 0.187 (11.0%) h-1; Q2/F, population estimate (%RSE) ([11]; adult 70 kg): 131 (14.2%) L/h; VP2/F, population estimate (%RSE) ([11]; adult 70 kg): 438 (26.5%) L; Q/F (Q1/F), population estimate (%RSE) [11, 22]: 258 (7.6%) L/h; VP/F (VP1/F), population estimate (%RSE) [11, 22]: 9190 (7.3%) L; VC/F, population estimate (%RSE) [11, 21]: 110 (10.8%) L
3 | CC(C)/N=c1\cc2n(-c3ccc(Cl)cc3)c3ccccc3nc-2cc1Nc1ccc(Cl)cc1 [Clofazimine, clofazimine] | No | 8.4 | – | – | Yes (Potency EC50 or IC50 < 10 µM) | -0.109 (16.2) | – | 0.38 (11.0) h-1 | 235 (10.4) mL/h | – | 2250 (28.0) mL | – | Yes (Potency EC50 or IC50 < 10 µM) | – | – | – | < 0.001 | 208 | 8.4 | Yes ^T | EC50 ([2]; host cell Vero E6, ref 39): 0.31 µM; fraction unbound [13]: < 0.001; Dose effect on KA (exp) ([7]; covariate, hamster model): -0.0094 (20.4); Q2/F, population estimate (%RSE) ([7]; hamster 120 g): 90.5 (20.6) mL/h; VP2/F, population estimate (%RSE) ([7]; hamster 120 g): 7390 (14.9) mL; CL/F, elimination clearance, population estimate (%RSE) [15]: 49.4 (7.2) mL/h; VC/F, central volume of distribution, population estimate (%RSE) [15]: 356 (11.9) mL; IC50 ([10]; read-out: VERO cells Average IC50, With Pgp pump inhibitor): 0.2 µM; IC50 ([10]; read-out: VERO cells Average IC50, Without Pgp pump inhibitor): 5.9 µM; fraction unbound [16]: 0.003
4 | COCCCC/C(=N\OCCN)c1ccc(C(F)(F)F)cc1 [Fluvoxamine maleate, fluvoxamine maleate] | No | > 50 | 0.771 | 0.254 | No (key: Yes: Potency EC50 or IC50 < 10 µM; No: Potency EC50 or IC50 < 10 µM) | 1.21 (7.4) | 9500 (10.8) mL/h | – | – | 16500 (12.8) mL | – | 0.281 | No (key: Yes: Potency EC50 or IC50 < 10 µM; No: Potency EC50 or IC50 < 10 µM) | 32.6 | 26 | 0.148 (3.0) L/h | – | – | – | – | –
5 | Cc1c(O)cccc1C(=O)N[C@@H](CSc1ccccc1)[C@H](O)CN1C[C@H]2CCCC[C@H]2C[C@H]1C(=O)NC(C)(C)C [Nelfinavir, nelfinavir] | No ^e | 12.8 | 0.243 | 0.001 | Yes (Potency EC50 or IC50 < 10 µM) | – | 613 (4.2) mL/h | – | – | 547 (15.3) mL | – | 0.001 | Yes (Potency EC50 or IC50 < 10 µM) | 1.6 | 5.5 | – | – | > 32 | > 9 | Yes ^T | Lung inflammation and disease outcome ([1]; hamster, in vivo): diminution of lung inflammation; Virus load ([1]; hamster, in vivo): no effect on viral load was detected; EC50 ([2]; host cell Vero E6, ref 41): 2.89 µM; EC50 ([2]; host cell Vero, ref 40): 0.048 µM; EC50 ([2]; host cell VeroE6/TMPRSS2): 0.77 µM; IC50 ([3]; Severe acute respiratory syndrome coronavirus 2, Calu-3, read-out: EC50 or IC50, Calu-3 Cells (borderline)): 13 µM; Dose effect on F (linear) ([7]; covariate, hamster model): 0.384 (32); Dose effect on KA (linear) ([7]; covariate, hamster model): -0.801 (3.7)
6 | CCC(CC)COC(=O)[C@H](C)N[P@](=O)(OC[C@H]1O[C@@](C#N)(c2ccc3c(N)ncnn23)[C@H](O)[C@@H]1O)Oc1ccccc1 [remdesivir] | – | – | – | – | – | – | – | – | – | – | – | – | – | – | – | – | – | – | – | – | Effect on lung infectious titers ([1]; hamster, in vivo): no significant effect; Effect on lung viral RNA yields ([1]; hamster, in vivo): little significant effect; Plasma stability, half-life ([17]; genetically modified mouse (Cesc-/- knockout)): around 25 min; Plasma stability, half-life ([17]; mice): < 5 min
